Measured values from ChEMBL document CHEMBL3853341, “Nuclear magnetic resonance studies reveal stabilization of parallel G-quadruplex DNA [d(T2G4T)]4 upon binding to protoberberine alkaloid coralyne” (Bioorg Med Chem Lett, 2016).
The source made the active and inactive calls. The rule behind the calls is not given here.

Tests used:
[1] = Binding affinity to [d(T2AG3T)]4 G-quadruplex DNA (unknown origin) containing human telomeric repeat assessed as increase in melting temperature by NMR spectroscopic analysis
[2] = Binding affinity to [d(T2G4T)]4 G-quadruplex DNA (unknown origin) assessed as formation of 3'-flanking guanine at ligand:DNA molar ratio of 2 by 2D 1H-1H NOESY NMR spectroscopy
[3] = Binding affinity to deoxy(T2G4T)]4 G-quadruplex DNA (unknown origin) assessed as formation of negative induced CD band at 25 uM by […]
[4] = Binding affinity to [d(T2G4T)]4 G-quadruplex DNA (unknown origin) assessed as broadening of T2CH3 signal by measuring downfield shift at ligand:DNA molar ratio of 2 by 1D 1H NMR method
[5] = Binding affinity to [d(T2G4T)]4 G-quadruplex DNA (unknown origin) assessed as change in intensity of negative band at 242 nanometer by circular dichroism method
[6] = Binding affinity to [d(T2G4T)]4 G-quadruplex DNA (unknown origin) assessed as broadening of T7CH3 signal by measuring downfield shift at ligand:DNA molar ratio of 2 by 1D 1H NMR method
[7] = Binding affinity to [d(T2G4T)]4 G-quadruplex DNA (unknown origin) assessed as broadening of G3NH signal by measuring upfield shift at ligand:DNA molar ratio of 2 by 1D 1H NMR method
[8] = Binding affinity to [d(T2G4T)]4 G-quadruplex DNA (unknown origin) assessed as broadening of G6NH signal by measuring upfield shift at ligand:DNA molar ratio of 2 by 1D 1H NMR method
[9] = Binding affinity to [d(T2G4T)]4 G-quadruplex DNA (unknown origin) assessed as upfield shift in G5pG6 signal at ligand:DNA molar ratio of 0.25:1 to 2:1 by 1D 31P NMR method
[10] = Binding affinity to [d(T2G4T)]4 G-quadruplex DNA (unknown origin) assessed as diffusion coefficient of G3H8 proton signal at ligand:DNA molar ratio of 2 by NMR DOSY method
[11] = Binding affinity to [d(T2G4T)]4 G-quadruplex DNA (unknown origin) assessed as broadening of G4NH signal by measuring upfield shift at ligand:DNA molar ratio of 2 by 1D 1H NMR method
[12] = Binding affinity to [d(T2G4T)]4 G-quadruplex DNA (unknown origin) assessed as downfield shift in T2pG3 signal at ligand:DNA molar ratio of 0.25:1 to 2:1 by 1D 31P NMR method
[13] = Binding affinity to [d(T2G4T)]4 G-quadruplex DNA (unknown origin) assessed as downfield shift in G6pT7 signal at ligand:DNA molar ratio of 0.25:1 to 2:1 by 1D 31P NMR method
[14] = Binding affinity to deoxy(T2G4T)]4 G-quadruplex DNA (unknown origin) assessed as G3NH/G6NH signal by measuring melting temperature by 1H NMR spectroscopy
[15] = Binding affinity to [d(T2G4T)]4 G-quadruplex DNA (unknown origin) assessed as change in intensity of positive band at 264 nanometer by circular dichroism method
[16] = Binding affinity to [d(T2G4T)]4 G-quadruplex DNA (unknown origin) assessed as broadening of T7H6 signal by measuring downfield shift at ligand:DNA molar ratio of 2 by 1D 1H NMR method
[17] = Binding affinity to [d(T2G4T)]4 G-quadruplex DNA (unknown origin) assessed as upfield shift in compound 16OCH3 signal at ligand:DNA molar ratio of 2 by 1D 1H NMR method
[18] = Binding affinity to [d(T2G4T)]4 G-quadruplex DNA (unknown origin) assessed as upfield shift in G4pG5 signal at ligand:DNA molar ratio of 0.25:1 to 2:1 by 1D 31P NMR method
[19] = Binding affinity to [d(T2G4T)]4 G-quadruplex DNA (unknown origin) assessed as broadening of G5NH signal by measuring upfield shift at ligand:DNA molar ratio of 2 by 1D 1H NMR method
[20] = Binding affinity to [d(T2G4T)]4 G-quadruplex DNA (unknown origin) assessed as upfield shift in compound 5OCH3 signal at ligand:DNA molar ratio of 2 by 1D 1H NMR method
[21] = Binding affinity to [d(T2G4T)]4 G-quadruplex DNA (unknown origin) assessed as upfield shift in compound 15OCH3 signal at ligand:DNA molar ratio of 2 by 1D 1H NMR method
[22] = Binding affinity to [d(T2G4T)]4 G-quadruplex DNA (unknown origin) assessed as upfield shift in compound 1OCH3 signal at ligand:DNA molar ratio of 2 by 1D 1H NMR method
[23] = Binding affinity to [d(T2G4T)]4 G-quadruplex DNA (unknown origin) assessed as diffusion coefficient of H1/H16 proton signal at ligand:DNA molar ratio of 2 by NMR DOSY method (reference value: 5.08 10^-10m2/sec)

Q: Which ΔTm [1] does the source give for Cc1cc2c3c([n+](C)c4ccc(F)cc4c3c1)-c1cc(F)ccc1N2C here?
A: 20 °C

Q: With O=c1c(O)c(-c2ccc(O)c(O)c2)oc2cc(O)cc(O)c12 as the compound, how does the ΔTm [1] read?
A: 20 °C

Q: For COc1cc2cc3c4cc(OC)c(OC)cc4cc[n+]3c(C)c2cc1OC, which Activity [2] is on record?
A: Active

Q: What about the Activity [3] of the same compound?
A: Active

Q: And the Activity [4]?
A: 0.17 ppm

Q: What about the Activity [5] of the same compound?
A: Active

Q: What about the Activity [6] of the same compound?
A: 0.22 ppm

Q: And the Activity [7]?
A: 0.54 ppm

Q: And the Activity [8]?
A: 0.8 ppm

Q: What about the Activity [9] of the same compound?
A: 0.12 ppm

Q: And the D [10]?
A: 3.26 ×10⁻¹⁰ m2/s

Q: What about the Activity [11] of the same compound?
A: 0.37 ppm

Q: What about the Activity [12] of the same compound?
A: 0.28 ppm

Q: And the Activity [13]?
A: 0.27 ppm

Q: What about the ΔTm [14] of the same compound?
A: > 20 °C

Q: And the Activity [15]?
A: Active

Q: And the Activity [16]?
A: 0.33 ppm

Q: What about the Activity [17] of the same compound?
A: 0.61 ppm

Q: And the Activity [18]?
A: 0.12 ppm

Q: And the Activity [19]?
A: 0.38 ppm

Q: What about the Activity [20] of the same compound?
A: 0.72 ppm

Q: And the Activity [21]?
A: 0.46 ppm

Q: And the Activity [22]?
A: 0.49 ppm

Q: And the D [23]?
A: 3.31 ×10⁻¹⁰ m2/s
